Data taken from patent US20250114460A1, “NOVEL PLK1 DEGRADATION INDUCING COMPOUND” (UPPTHERA, INC., priority 2021, published 2025).

Tests used:
Assay type in all cases: cell-based
PLK1 = target: T1, PLK1 (Homo sapiens, UniProt P53350); assay: Luciferase assay for PLK1 in HeLa LgBit (Plk1-HiBit KI) cell line; details: 300 nM compound, luminescence after 9 hours
T1 construct: endogenous in cells; host or cells: HeLa LgBit (Plk1-HiBit KI): HeLa stably expressing LgBit, with a CRISPR/Cas9 knock-in of HiBit at the endogenous PLK1 locus
T1 sequence (P53350 whole entry): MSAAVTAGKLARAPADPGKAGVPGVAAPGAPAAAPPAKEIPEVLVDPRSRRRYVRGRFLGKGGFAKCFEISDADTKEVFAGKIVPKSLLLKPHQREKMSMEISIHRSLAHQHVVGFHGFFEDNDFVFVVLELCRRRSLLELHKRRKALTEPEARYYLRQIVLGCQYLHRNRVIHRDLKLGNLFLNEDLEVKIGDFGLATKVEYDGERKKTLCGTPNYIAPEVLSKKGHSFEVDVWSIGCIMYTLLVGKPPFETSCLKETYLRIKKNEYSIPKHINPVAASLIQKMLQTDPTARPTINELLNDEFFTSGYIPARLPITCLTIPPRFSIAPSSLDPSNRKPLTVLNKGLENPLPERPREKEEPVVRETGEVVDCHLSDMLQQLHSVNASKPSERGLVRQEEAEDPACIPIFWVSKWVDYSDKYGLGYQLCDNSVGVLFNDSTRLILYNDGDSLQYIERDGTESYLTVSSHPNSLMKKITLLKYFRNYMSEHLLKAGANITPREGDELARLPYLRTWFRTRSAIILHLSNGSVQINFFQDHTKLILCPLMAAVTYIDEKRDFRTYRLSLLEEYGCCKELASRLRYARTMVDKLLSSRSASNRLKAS
Outline: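 Luminescence, followed in real time after adding compound at 300 nM and Endurazine substrate, is reported relative to DMSO-treated wells. Cells are a HeLa LgBit line with a Plk1-HiBit knock-in, synchronized by 2 mM thymidine for 24 h, released, and cultured 18 h before treatment.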

NCI-H526 cell line = assay: Cell viability assay for H526 cell (EZ-Cytox); details: Homo sapiens, NCI-H526, 120 h; H526 cells, 5 days, 3000 nM to 0.46 nM
Experimental: (1) Culture of NCI-H526 Cell Line
(2) Treatment of Compounds of the Present Invention and Method of Cell Viability Assay
After treating the compound to each well to make the total volume of 200 μL, it was cultured in a CO2 incubator (Thermo Fisher Science, Cat. No. 4111) for 5 days.
The absorbance of the completely cultured sample was measured by setting the wavelength of a plate reader (BMG Labtech, CLARIOstar Plus) to […], and was measured after shaking for 3 minutes in a plate reader before measurement.
In Table 3, Activity represents IC50 value of each Exemplary Compound treatment group to H526 cell line (A: <30 nM, B: <50 nM, C: <100 nM, D: <200 nM, E: <400 nM).

MRC-5 cell line = assay: Cell viability assay for MRC-5 cell line (EZ-Cytox); details: for IC50: Homo sapiens, MRC5, 120 h, MRC-5 normal cell line, 5 days, 10000 nM to 1.52 nM, N.D. = no cytotoxicity until 10 μM, read-out: Activity: IC50 value of Exemplary Compound to MRC-5 cell line
Experimental: 4. Cell Viability Assay for MRC-5 Cell Line
(1) Culture of MRC-5 Cell Line
Passage of cultured cells was maintained within P15.
(2) Treatment of Compounds of the Present Invention
Then, it was cultured in 37° C.
(3) Cytotoxicity Experiment
CO2 incubator for 4 hours.

Activity: ratio of the luminescense value of each Exemplary Compound treatment group to DMSO treatment group (PLK1)	SMILES	IC50 (NCI-H526 cell line) [µM]	IC50 (MRC-5 cell line) [µM]	cytotoxicity in normal cell line (MRC-5 cell line; MRC-5, in words)
++ (++<0.6)	COc1cc(C(=O)NC2CCN(C(=O)CSc3cccc4c3C(=O)N(C3CCC(=O)NC3=O)C4=O)CC2)c(F)cc1Nc1ncc2c(n1)N(C1CCCC1)CC(F)(F)C(=O)N2C (stereo not shown) [Compound 41, 4-((9-cyclopentyl-7,7-difluoro-5-methyl-6-oxo-6,7,8,9-tetrahydro-5H-pyrimido[4,5-b][1,4]diazepin-2-yl)amino)-N-(1-(2-((2-(2,6-dioxopiperidin-3-yl)-1,3-dioxoisoindolin-4-yl)thio)acetyl)piperidin-4-yl)-2-fluoro-5-methoxybenzamide]	< 0.2	> 10	–
+++ (+++: <0.3)	COc1cc(C(=O)NN2CCN(C(=O)CCC3CCN(c4cccc5c4C(=O)N(C4CCC(=O)NC4=O)C5=O)CC3)CC2)ccc1Nc1ncc2c(n1)N(C1CCCC1)CC(F)(F)C(=O)N2C (stereo not shown) [Compound 76, 4-((9-cyclopentyl-7,7-difluoro-5-methyl-6-oxo-6,7,8,9-tetrahydro-5H-pyrimido[4,5-b][1,4]diazepin-2-yl)amino)-N-(4-(3-(1-(2-(2,6-dioxopiperidin-3-yl)-1,3-dioxoisoindolin-4-yl)piperidin-4-yl)propanoyl)piperazin-1-yl)-3-methoxybenzamide]	< 0.1	> 10	–
+++ (+++: <0.3)	COc1cc(C(=O)NC2CCN(C(=O)CCCOc3cccc4c3C(=O)N(C3CCC(=O)NC3=O)C4=O)CC2)ccc1Nc1ncc2c(n1)N(C1CCCC1)CC(F)(F)C(=O)N2C (stereo not shown) [Compound 31, 4-((9-cyclopentyl-7,7-difluoro-5-methyl-6-oxo-6,7,8,9-tetrahydro-5H-pyrimido[4,5-b][1,4]diazepin-2-yl)amino)-N-(1-(4-((2-(2,6-dioxopiperidin-3-yl)-1,3-dioxoisoindolin-4-yl)oxy)butanoyl)piperidin-4-yl)-3-methoxybenzamide]	< 0.1	> 10	–
++ (++<0.6)	COc1cc(C(=O)NN2CCC(CN3CCN(c4cccc5c4C(=O)N(C4CCC(=O)NC4=O)C5=O)CC3)C(F)(F)C2)ccc1Nc1ncc2c(n1)N(C(C)C)CC(F)(F)C(=O)N2C (stereo not shown) [Compound 157, 4-((7,7-difluoro-9-isopropyl-5-methyl-6-oxo-6,7,8,9-tetrahydro-5H-pyrimido[4,5-b][1,4]diazepin-2-yl)amino)-N-(4-((4-(2-(2,6-dioxopiperidin-3-yl)-1,3-dioxoisoindolin-4-yl)piperazin-1-yl)methyl)-3,3-difluoropiperidin-1-yl)-3-methoxybenzamide]	< 0.1	> 10	–
++ (++<0.6)	COc1cc(C(=O)NN2CCC(CN3CCN(c4cccc5c4C(=O)N(C4CCC(=O)NC4=O)C5=O)CC3)CC2)ccc1Nc1ncc2c(n1)N(C1CCCC1)CC(F)(F)C(=O)N2C (stereo not shown) [Compound 124, 4-((9-cyclopentyl-7,7-difluoro-5-methyl-6-oxo-6,7,8,9-tetrahydro-5H-pyrimido[4,5-b][1,4]diazepin-2-yl)amino)-N-(4-((4-(2-(2,6-dioxopiperidin-3-yl)-1,3-dioxoisoindolin-4-yl)piperazin-1-yl)methyl)piperidin-1-yl)-3-methoxybenzamide]	< 0.03	> 10	–
++ (++<0.6)	COc1cc(C(=O)N2CCN(C/C=C/CN3CCN(c4ccc5c(c4)C(=O)N(C4CCC(=O)NC4=O)C5=O)CC3)CC2)ccc1Nc1ncc2c(n1)N(C1CCCC1)CC(F)(F)C(=O)N2C (stereo not shown) [Compound 92, (E)-5-(4-(4-(4-(4-((9-cyclopentyl-7,7-difluoro-5-methyl-6-oxo-6,7,8,9-tetrahydro-5H-pyrimido[4,5-b][1,4]diazepin-2-yl)amino)-3-methoxybenzoyl)piperazin-1-yl)but-2-en-1-yl)piperazin-1-yl)-2-(2,6-dioxopiperidin-3-yl)isoindoline-1,3-dione]	< 0.2	> 10	–
++ (++<0.6)	COc1cc(C(=O)NN2CCC(N3CC4(CCN(c5cccc6c5C(=O)N(C5CCC(=O)NC5=O)C6=O)CC4)C3)CC2)c(F)cc1Nc1ncc2c(n1)N(C1CCCC1)CC(F)(F)C(=O)N2C (stereo not shown) [Compound 209, 4-((9-cyclopentyl-7,7-difluoro-5-methyl-6-oxo-6,7,8,9-tetrahydro-5H-pyrimido[4,5-b][1,4]diazepin-2-yl)amino)-N-(4-(7-(2-(2,6-dioxopiperidin-3-yl)-1,3-dioxoisoindolin-4-yl)-2,7-diazaspiro[3.5]nonan-2-yl)piperidin-1-yl)-2-fluoro-5-methoxybenzamide]	< 0.05	5.31	–
++ (++<0.6)	COc1cc(C(=O)N2CCC(N3CCC(C#Cc4ccc5c(c4)C(=O)N(C4CCC(=O)NC4=O)C5=O)CC3)CC2)ccc1Nc1ncc2c(n1)N(C1CCCC1)CC(F)(F)C(=O)N2C (stereo not shown) [Compound 182, 5-((1′-(4-((9-cyclopentyl-7,7-difluoro-5-methyl-6-oxo-6,7,8,9-tetrahydro-5H-pyrimido[4,5-b][1,4]diazepin-2-yl)amino)-3-methoxybenzoyl)-[1,4′-piperidin]-4-yl)ethynyl)-2-(2,6-dioxopiperidin-3-yl)isoindoline-1,3-dione]	–	9.75	–
–	CC[C@@H]1C(=O)N(C)c2cnc(Nc3ccc(C(=O)NCCOCCOCCNc4cccc5c4C(=O)N(C4CCC(=O)NC4=O)C5=O)cc3OC)nc2N1C1CCCC1 (stereo partly shown) [Comparative Compound 1, reference compound]	–	–	exhibited a high level of cytotoxicity in normal cell line
++ (++<0.6)	COc1cc(C(=O)N[C@H]2CCN(CCOc3cccc4c3C(=O)N(C3CCC(=O)NC3=O)C4=O)C2)ccc1Nc1ncc2c(n1)N(C1CCCC1)CC(F)(F)C(=O)N2C (stereo partly drawn) [Compound 9, 4-((9-cyclopentyl-7,7-difluoro-5-methyl-6-oxo-6,7,8,9-tetrahydro-5H-pyrimido[4,5-b][1,4]diazepin-2-yl)amino)-N-((3S)-1-(2-((2-(2,6-dioxopiperidin-3-yl)-1,3-dioxoisoindolin-4-yl)oxy)ethyl)pyrrolidin-3-yl)-3-methoxybenzamide]	–	> 10	–
++ (++<0.6)	CN1C(=O)C(F)(F)CN(C2CCCC2)c2nc(Nc3ccc(C(=O)NC4CCN(C(=O)CCCNc5cccc6c5C(=O)N(C5CCC(=O)NC5=O)C6=O)CC4)cc3OC(F)(F)F)ncc21 (stereo not shown) [Compound 28, 4-((9-cyclopentyl-7,7-difluoro-5-methyl-6-oxo-6,7,8,9-tetrahydro-5H-pyrimido[4,5-b][1,4]diazepin-2-yl)amino)-N-(1-(4-((2-(2,6-dioxopiperidin-3-yl)-1,3-dioxoisoindolin-4-yl)amino)butanoyl)piperidin-4-yl)-3-(trifluoromethoxy)benzamide]	–	> 10	–
